Legend:
[1] = system: female NMRI mice; assay: Anorectic action: cumulated milk consumption after oral administration; type: in vivo
Method: The anorectic action was tested on female NMRI mice. After withdrawal of food for 24 hours, the test preparation of the invention was administered via a stomach tube. Kept individually and with free access to drinking water, the animals were offered evaporated milk 30 minutes after the administration of the preparation. The consumption of evaporated milk was determined every half-hour for 7 hours and the general condition of the animals was observed. The measured milk consumption was compared with that of untreated control animals.

## OC12N=C(c3ccccc3)SC1(Br)Cc1cc(Cl)ccc12 (stereo not drawn) [Example 1, 8a-Bromo-6-chloro-2-phenyl-8,8a-dihydroindeno[1,2-d]thiazol-3a-ol]
[1]; oral dose 50 mg/kg via stomach tube, female NMRI mice after 24 h food withdrawal, evaporated milk consumption determined over 7 hours, N=5
  Number of animals/ cumulated milk consumption of the treated animals N/[ml]: 5/0.64 ml
[1]; oral dose 50 mg/kg, female NMRI mice, compared to untreated control animals
  Reduction of the cumulated milk consumption in % of the control: 82%
other
  melting point: 148 °C

Reference: patent publication US6403624B1, “8,8A-dihydroindeno[1,2-D] thiazole derivatives which are substituted in the 8A-position; processes for their preparation and their use as medicaments” (Aventis Pharma Deutschland GmbH, priority 2000, dated 2002)
